Source: patent publication US8778966B2, “Quinolinone derivatives as PARP and tank inhibitors” (Janssen Pharmaceutica, NV, priority 2007, dated 2014)

System: PC-3 cells
Test: Antiproliferative activity, Alamar Blue assay, PC-3 cells
Format: cell-based, human
Settings: Homo sapiens, PC-3, PC3 cells; read-out: PC3 antiproliferative activity pIC50 (converted)
Summary of the method: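 Resazurin-based fluorescence (540 nm ex/590 nm em) measured after 4-day compound treatment plus 24 hrs dye incubation at 37° C. Cells plated at 4.5×10^3 cells/ml, adhered 24 hr first. pIC50 from probit-derived IC50 on % viable cells versus untreated, triplicate wells.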

Q: With `CCc1cc2ccc(C(C)(C#N)CCOc3ccc(SC)cc3)cc2[nH]c1=O` (stereo not shown) [Compound 155] as the molecule, how does the IC50 read?
A: Its IC50 is 1.58 µM.

Q: With `CCc1cc2ccc(C(C)(C#N)CC3CN(C)c4ccccc4O3)cc2[nH]c1=O` (stereo not shown) [Compound 156] as the molecule, how does the IC50 read?
A: The IC50 was 2.51 µM.

Q: With `CCc1cc2ccc(C(C)(C#N)CCOc3ccc4ccccc4c3)cc2[nH]c1=O` (stereo not shown) [Compound 157] as the molecule, how does the IC50 read?
A: The IC50 was 1 µM.

Q: `CCc1cc2ccc(C(C)(C#N)CCOc3cccc4ccccc34)cc2[nH]c1=O` (stereo not shown) [Compound 158] was tested. Which IC50 did it give?
A: The IC50 was 0.794 µM.

Q: How did the IC50 turn out when `CCc1cc2ccc(C(C)(C#N)CCOc3ccccc3C(C)=O)cc2[nH]c1=O` (stereo not shown) [Compound 159] was run?
A: Its IC50 is > 10 µM.

Q: Which IC50 does the source give for `CCc1cc2ccc(C(C)(C#N)CCOc3ccc(Br)cc3)cc2[nH]c1=O` (stereo not shown) [Compound 160] here?
A: Its IC50 is 1.26 µM.

Q: `CCc1cc2ccc(C(C)(C#N)CCOc3ccc(C#N)cc3)cc2[nH]c1=O` (stereo not shown) [Compound 161] was tested. Which IC50 did it give?
A: Its IC50 is 0.501 µM.

Q: Which IC50 does the source give for `CCc1cc2ccc(C(C)(C#N)CCOc3ccc4oc(C)c(C)c4c3)cc2[nH]c1=O` (stereo not shown) [Compound 162] here?
A: Its IC50 is > 10 µM.

Q: Which IC50 does the source give for `CCc1cc2ccc(C(C)(C#N)CCOc3cccc4c3OCCO4)cc2[nH]c1=O` (stereo not shown) [Compound 163] here?
A: The IC50 was 1 µM.

Q: Which IC50 does the source give for `CCc1cc2ccc(C(C)(C#N)Cc3cccc(CCC#N)c3)cc2[nH]c1=O` (stereo not shown) [Compound 165] here?
A: The IC50 was 1 µM.

Q: `CCc1cc2ccc(C(C#N)(CCOc3ccccc3)C3CC3)cc2[nH]c1=O` (stereo not shown) [Compound 166] was tested. Which IC50 did it give?
A: The IC50 was 7.94 µM.

Q: With `CCc1cc2ccc(C(C)(C#N)CCOc3ccc(C(C)(C)C)cc3)cc2[nH]c1=O` (stereo not shown) [Compound 167] as the molecule, how does the IC50 read?
A: The IC50 was 7.94 µM.

Q: With `CCc1cc2ccc(C(C)(C#N)CC#Cc3cccc(F)c3)cc2[nH]c1=O` (stereo not shown) [Compound 184] as the molecule, how does the IC50 read?
A: Its IC50 is 3.98 µM.

Q: `Cc1cc2ccc([C@@](C)(C#N)[C@@H]3CCc4cc(C#N)ccc43)cc2[nH]c1=O` [Compound 245] was tested. Which IC50 did it give?
A: The IC50 was 7.94 µM.

Q: Which IC50 does the source give for `CCc1cc2ccc([C@](C)(C#N)C[C@@H]3CCc4cc(C)ccc4O3)cc2[nH]c1=O` [Compound 251] here?
A: The IC50 was 1 µM.

Q: For `CCc1cc2ccc([C@@](C)(C#N)C[C@@H]3CCc4cc(C)ccc4O3)cc2[nH]c1=O` [Compound 252], which IC50 is on record?
A: Its IC50 is 0.251 µM.

Q: With `CCc1cc2ccc(C(C#N)(CC)CCOc3ccc(C#N)cc3)cc2[nH]c1=O` (stereo not shown) [Compound 271] as the molecule, how does the IC50 read?
A: Its IC50 is 2.51 µM.

Q: With `Cc1cc2ccc([C@@](C)(C#N)[C@H]3CCc4cc(C#N)ccc43)cc2[nH]c1=O` [Compound 389] as the molecule, how does the IC50 read?
A: The IC50 was 0.2 µM.

Q: `CCc1cc2ccc(C(C#N)(CC)C3CCc4ccc(F)cc43)cc2[nH]c1=O` (stereo not shown) [Compound 391] was tested. Which IC50 did it give?
A: Its IC50 is 0.794 µM.
